Measurements taken from US20250360130A1, “METHODS OF TREATING INDOLENT SYSTEMIC MASTOCYTOSIS” (Telios Pharma Inc., priority 2024, published 2025).

Assays:
[1] = test system: human mast cells; experiment: ISM-like mast cell chemotaxis towards conditioned media (Transwell); type: cell-based; settings: conditioned media from ISM-like mast cells treated two hours
Procedure: Human mast cells were differentiated from bone marrow CD34+ cells from four healthy donors as set forth in Example 4. Cells were used to produce conditioned media in ISM-like conditions. Conditioned media was the supernatant collected from mast cells cultured with stem cell factor (100 ng/ml), sensitized with NP-IgE (0.1 μg/mL) for 18 hours, treated with Compound 128 for two hours, and stimulated with NP-BSA (antigen; 0.1 μg/mL) for four hours. Migration of mast cells in the top chamber on Transwell […] inserts (Corning) towards the antigen-stimulated conditioned media in the bottom chamber was quantified after four hours using the CellTiter-Glo™ Luminescent Cell Viability Assay Kit (Promega). The amount of luminescence is correlated with live cell numbers. Fold change over the non-activated control was calculated.

[2] = molecular target: BTK (Homo sapiens, UniProt Q06187); experiment: Antigen-induced BTK phosphorylation in ISM-like mast cells; type: cell-based; parameters: Human mast cells were differentiated from bone marrow CD34+ cells from six healthy donors; endogenous in cells; host or cells: human mast cells differentiated from bone marrow CD34+ cells of healthy donors, cultured with SCF; settings: ISM-like (+SCF) mast cells, two hours treatment prior to stimulation
Procedure: Human mast cells were derived from bone marrow CD34+ cells from six healthy donors for up to eight weeks by culturing CD34+ cells in StemSpan SFEM II (Stem Cell Technologies) supplemented with stem cell factor (SCF; 100 ng/mL; R&D System), IL-6 (R&D Systems), IL-3 (R&D Systems) and 1% penicillin/streptomycin (P/S; Gibco) for the first 10 days and in StemSpan SFEM II supplemented with SCF and IL-6 and 1% P/S for the remaining time in culture. […] Supernatant was collected and histamine levels were measured using a Histamine ELISA kit (Eagle Biosciences). […] Percent of activated mast cells was calculated as number of activated mast cells over the total number of mast cells.
Human mast cells were differentiated from bone marrow CD34+ cells from six healthy donors, cultured and sensitized as set forth in Example 4. […] The median fluorescence intensity of phosphorylated BTK was measured. CD63 and histamine levels in these cells were measured and percent activated mast cells were calculated as set forth in Example 4. The percent of stimulated control for pBTK, activated mast cells (CD63+) and histamine levels was calculated. […]

Sequence of BTK (Q06187 whole entry): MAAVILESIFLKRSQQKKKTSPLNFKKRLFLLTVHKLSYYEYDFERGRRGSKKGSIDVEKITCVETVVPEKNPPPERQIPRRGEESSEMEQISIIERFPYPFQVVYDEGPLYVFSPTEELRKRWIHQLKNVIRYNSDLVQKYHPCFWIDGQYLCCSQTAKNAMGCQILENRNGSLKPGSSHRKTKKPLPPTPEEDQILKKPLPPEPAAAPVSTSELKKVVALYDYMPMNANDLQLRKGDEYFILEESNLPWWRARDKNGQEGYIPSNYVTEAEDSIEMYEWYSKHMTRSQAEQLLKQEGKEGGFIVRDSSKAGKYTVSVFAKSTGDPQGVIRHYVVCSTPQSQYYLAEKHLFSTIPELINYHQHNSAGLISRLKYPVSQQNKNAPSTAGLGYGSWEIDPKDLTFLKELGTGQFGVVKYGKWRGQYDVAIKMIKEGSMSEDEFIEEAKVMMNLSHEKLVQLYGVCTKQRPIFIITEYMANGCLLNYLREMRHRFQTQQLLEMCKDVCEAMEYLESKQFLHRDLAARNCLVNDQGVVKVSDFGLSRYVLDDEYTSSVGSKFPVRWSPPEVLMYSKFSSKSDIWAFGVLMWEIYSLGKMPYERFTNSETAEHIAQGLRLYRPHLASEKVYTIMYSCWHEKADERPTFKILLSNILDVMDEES

C=CC(=O)N1CCC(F)(CNc2ncnc(N)c2-c2ccc(Oc3ccccc3)cc2)CC1 [Compound 128, 1-(4-(((6-amino-5-(4-phenoxyphenyl)pyrimidin-4-yl)amino)methyl)-4-fluoropiperidin-1-yl)prop-2-en-1-one]
chemoattractant activity of mast cells (chemotaxis, fold change over non-activated control) [1]: inhibited | IgE-mediated BTK phosphorylation [2]: potently inhibits
